Results taken from US10738056B2 (Aduro BioTech, Inc., priority 2017, dated 2020).

How the values were obtained:
[1] = target: Human cGAS amino acids 155-522 (Homo sapiens (Human), UniProt Q8N884); assay: cGAS biochemical activity assay (ATP remaining, Kinase-Glo Max luminescence); conditions: human cGAS 155-522, ATP remaining (Kinase-Glo Max); read-out: cGAS IC50
[2] = system: cGAS/STING pathway in THP1 cells; assay: THP1 cell-based cGAS/STING pathway activity assay (IRF-3-linked luciferase reporter); conditions: Homo sapiens, THP-1
Procedure, shortened: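 THP1 cells carrying an IRF-3-driven luciferase reporter were read across a range of compound concentrations, and IC50 values were derived from these concentration responses; the assay upper limit was 100 μM.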

Chain of Human cGAS amino acids 155-522 (Q8N884 157-522): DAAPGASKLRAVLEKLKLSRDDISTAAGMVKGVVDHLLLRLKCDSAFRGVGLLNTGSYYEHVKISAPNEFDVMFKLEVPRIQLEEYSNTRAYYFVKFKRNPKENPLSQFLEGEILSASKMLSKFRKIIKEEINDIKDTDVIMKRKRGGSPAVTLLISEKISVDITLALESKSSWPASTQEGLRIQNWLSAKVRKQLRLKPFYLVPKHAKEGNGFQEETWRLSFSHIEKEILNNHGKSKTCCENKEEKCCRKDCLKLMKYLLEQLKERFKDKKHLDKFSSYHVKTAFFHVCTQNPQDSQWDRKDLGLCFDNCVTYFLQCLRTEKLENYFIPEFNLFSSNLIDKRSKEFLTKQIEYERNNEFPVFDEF

SMILES | IC50 [1] [µM] | IC50 [2] [µM]
COc1cccc2oc(-c3c(CN(C)C)[nH]c4c(-c5ccccc5)c(C(F)(F)F)nn4c3=O)nc12 [Compound C1109, 5-((dimethylamino)methyl)-6-(4-methoxybenzo[d]oxazol-2-yl)-3-phenyl-2-(trifluoromethyl)pyrazolo[1,5-a]pyrimidin-7(4H)-one] | < 20 | > 100
Cc1[nH]c2c(-c3ccccc3)c(C(F)(F)F)nn2c(=O)c1-c1nc2c(OCC(N)=O)cccc2o1 [Compound C1122, 2-((2-(5-methyl-7-oxo-3-phenyl-2-(trifluoromethyl)-4,7-dihydropyrazolo[1,5-a]pyrimidin-6-yl)benzo[d]oxazol-4-yl)oxy)acetamide] | < 20 | 20 to 100
COc1cccc2oc(-c3c(C(=O)O)[nH]c4c(-c5ccccc5)c(C(F)(F)F)nn4c3=O)nc12 [Compound C1131, 6-(4-methoxybenzo[d]oxazol-2-yl)-7-oxo-3-phenyl-2-(trifluoromethyl)-4,7-dihydropyrazolo[1,5-a]pyrimidine-5-carboxylic acid] | < 20 | > 100
COc1cccc2oc(-c3c(C(N)=O)[nH]c4c(-c5ccccc5)c(C(F)(F)F)nn4c3=O)nc12 [Compound C1132, 6-(4-methoxybenzo[d]oxazol-2-yl)-7-oxo-3-phenyl-2-(trifluoromethyl)-4,7-dihydropyrazolo[1,5-a]pyrimidine-5-carboxamide] | < 20 | > 100
COc1cccc2oc(-c3c(C[S+](C)[O-])[nH]c4c(-c5ccccc5)c(C(F)(F)F)nn4c3=O)nc12 (centres unmarked) [Compound C1137, 6-(4-methoxybenzo[d]oxazol-2-yl)-5-((methylsulfinyl)methyl)-3-phenyl-2-(trifluoromethyl)pyrazolo[1,5-a]pyrimidin-7(4H)-one] | < 20 | > 100
COc1cccc2oc(-c3c(CS(C)(=O)=O)[nH]c4c(-c5ccccc5)c(C(F)(F)F)nn4c3=O)nc12 [Compound C1138, 6-(4-methoxybenzo[d]oxazol-2-yl)-5-((methylsulfonyl)methyl)-3-phenyl-2-(trifluoromethyl)pyrazolo[1,5-a]pyrimidin-7(4H)-one] | < 20 | > 100
Cc1[nH]c2c(-c3ccccc3)c(C(F)(F)F)nn2c(=O)c1-c1nc(CO)c(C(C)C)o1 [Compound C1143, 6-(4-(hydroxymethyl)-5-isopropyloxazol-2-yl)-5-methyl-3-phenyl-2-(trifluoromethyl)pyrazolo[1,5-a]pyrimidin-7(4H)-one] | < 20 | > 100
COc1cccc2oc(-c3c(COCC(=O)O)[nH]c4c(-c5ccccc5)c(C(F)(F)F)nn4c3=O)nc12 [Compound C1146, 2-((6-(4-methoxybenzo[d]oxazol-2-yl)-7-oxo-3-phenyl-2-(trifluoromethyl)-4,7-dihydropyrazolo[1,5-a]pyrimidin-5-yl)methoxy)acetic acid] | < 20 | > 100
COc1cccc2oc(-c3c(COC4COC4)[nH]c4c(-c5ccccc5)c(C(F)(F)F)nn4c3=O)nc12 [Compound C1152, 6-(4-methoxybenzo[d]oxazol-2-yl)-5-((oxetan-3-yloxy)methyl)-3-phenyl-2-(trifluoromethyl)pyrazolo[1,5-a]pyrimidin-7(4H)-one] | < 20 | 20 to 100
COCc1nc(-c2c(C)[nH]c3c(-c4ccccc4)c(C(F)(F)F)nn3c2=O)oc1C(C)C [Compound C1153, 6-(5-isopropyl-4-(methoxymethyl)oxazol-2-yl)-5-methyl-3-phenyl-2-(trifluoromethyl)pyrazolo[1,5-a]pyrimidin-7(4H)-one] | < 20 | 20 to 100
Cc1[nH]c2c(-c3ccccc3)c(C(F)(F)F)nn2c(=O)c1-c1nc2ccc(N)cc2o1 [Compound C1156, 6-(6-aminobenzo[d]oxazol-2-yl)-5-methyl-3-phenyl-2-(trifluoromethyl)pyrazolo[1,5-a]pyrimidin-7(4H)-one] | < 20 | 20 to 100
Cc1[nH]c2c(-c3ccccc3)c(C(F)(F)F)nn2c(=O)c1-c1nc(CO)c(C2CCCCC2)o1 [Compound C1157, 6-(5-cyclohexyl-4-(hydroxymethyl)oxazol-2-yl)-5-methyl-3-phenyl-2-(trifluoromethyl)pyrazolo[1,5-a]pyrimidin-7(4H)-one] | < 20 | < 20
COc1cccc2oc(-c3c(COC4CCNC4=O)[nH]c4c(-c5ccccc5)c(C(F)(F)F)nn4c3=O)nc12 (centres unmarked) [Compound C1159, 6-(4-methoxybenzo[d]oxazol-2-yl)-5-(((2-oxopyrrolidin-3-yl)oxy)methyl)-3-phenyl-2-(trifluoromethyl)pyrazolo[1,5-a]pyrimidin-7(4H)-one] | < 20 | > 100
Cc1[nH]c2c(-c3ccccc3)c(C(F)(F)F)nn2c(=O)c1-c1nc(C(=O)O)co1 [Compound C1165, 2-(5-methyl-7-oxo-3-phenyl-2-(trifluoromethyl)-4,7-dihydropyrazolo[1,5-a]pyrimidin-6-yl)oxazole-4-carboxylic acid] | < 20 | > 100
Cc1[nH]c2c(-c3ccccc3)c(C(F)(F)F)nn2c(=O)c1-c1ncco1 [Compound C1170, 5-methyl-6-(oxazol-2-yl)-3-phenyl-2-(trifluoromethyl)pyrazolo[1,5-a]pyrimidin-7(4H)-one] | < 20 | > 100

Results, then the compound that gave them:

IC50 [1] [µM] | IC50 [2] [µM] | SMILES
< 20 | < 20 | COc1ccc(C(C)=O)c2oc(-c3c(C)[nH]c4c(-c5ccccc5)c(C(F)(F)F)nn4c3=O)nc12 [Compound C1111, 6-(7-acetyl-4-methoxybenzo[d]oxazol-2-yl)-5-methyl-3-phenyl-2-(trifluoromethyl)pyrazolo[1,5-a]pyrimidin-7(4H)-one]
20 to 250 | > 100 | COc1cc(C#N)cc2oc(-c3c(C)[nH]c4c(-c5ccccc5)c(C(F)(F)F)nn4c3=O)nc12 [Compound C1112, 4-methoxy-2-(5-methyl-7-oxo-3-phenyl-2-(trifluoromethyl)-4,7-dihydropyrazolo[1,5-a]pyrimidin-6-yl)benzo[d]oxazole-6-carbonitrile]
< 20 | > 100 | Cc1[nH]c2c(-c3ccccc3)c(C(F)(F)F)nn2c(=O)c1-c1nc2c(=O)[nH]ccc2o1 [Compound C1116, 2-(5-methyl-7-oxo-3-phenyl-2-(trifluoromethyl)-4,7-dihydropyrazolo[1,5-a]pyrimidin-6-yl)oxazolo[4,5-c]pyridin-4(5H)-one]
< 20 | 20 to 100 | COc1ccc(S(C)(=O)=O)c2oc(-c3c(C)[nH]c4c(-c5ccccc5)c(C(F)(F)F)nn4c3=O)nc12 [Compound C1125, 6-(4-methoxy-7-(methylsulfonyl)benzo[d]oxazol-2-yl)-5-methyl-3-phenyl-2-(trifluoromethyl)pyrazolo[1,5-a]pyrimidin-7(4H)-one]
< 20 | 20 to 100 | COc1ccc(C(=O)O)c2oc(-c3c(C)[nH]c4c(-c5ccccc5)c(C(F)(F)F)nn4c3=O)nc12 [Compound C1130]
< 20 | > 100 | COc1cc(CN)cc2oc(-c3c(C)[nH]c4c(-c5ccccc5)c(C(F)(F)F)nn4c3=O)nc12 [Compound C1135, 6-(6-(aminomethyl)-4-methoxybenzo[d]oxazol-2-yl)-5-methyl-3-phenyl-2-(trifluoromethyl)pyrazolo[1,5-a]pyrimidin-7(4H)-one]
< 20 | > 100 | COc1cc(C(=N)N)cc2oc(-c3c(C)[nH]c4c(-c5ccccc5)c(C(F)(F)F)nn4c3=O)nc12 [Compound C1141, 4-methoxy-2-(5-methyl-7-oxo-3-phenyl-2-(trifluoromethyl)-4,7-dihydropyrazolo[1,5-a]pyrimidin-6-yl)benzo[d]oxazole-6-carboximidamide]
< 20 | 20 to 100 | COc1cc(C(N)=O)cc2oc(-c3c(C)[nH]c4c(-c5ccccc5)c(C(F)(F)F)nn4c3=O)nc12 [Compound C1149, 4-methoxy-2-(5-methyl-7-oxo-3-phenyl-2-(trifluoromethyl)-4,7-dihydropyrazolo[1,5-a]pyrimidin-6-yl)benzo[d]oxazole-6-carboxamide]
< 20 | 20 to 100 | COc1cc(C(=O)O)cc2oc(-c3c(C)[nH]c4c(-c5ccccc5)c(C(F)(F)F)nn4c3=O)nc12 [Compound C1155, 4-methoxy-2-(5-methyl-7-oxo-3-phenyl-2-(trifluoromethyl)-4,7-dihydropyrazolo[1,5-a]pyrimidin-6-yl)benzo[d]oxazole-6-carboxylic acid]
< 20 | < 20 | CNc1cc(OC)c2nc(-c3c(C)[nH]c4c(-c5ccccc5)c(C(F)(F)F)nn4c3=O)oc2c1 [Compound C1161, 6-(4-methoxy-6-(methylamino)benzo[d]oxazol-2-yl)-5-methyl-3-phenyl-2-(trifluoromethyl)pyrazolo[1,5-a]pyrimidin-7(4H)-one]
< 20 | < 20 | COc1cc(N(C)C)cc2oc(-c3c(C)[nH]c4c(-c5ccccc5)c(C(F)(F)F)nn4c3=O)nc12 [Compound C1162, 6-(6-(dimethylamino)-4-methoxybenzo[d]oxazol-2-yl)-5-methyl-3-phenyl-2-(trifluoromethyl)pyrazolo[1,5-a]pyrimidin-7(4H)-one]
< 20 | > 100 | COc1cc([N+](C)(C)C)cc2oc(-c3c(C)[nH]c4c(-c5ccccc5)c(C(F)(F)F)nn4c3=O)nc12 [Compound C1163, 4-methoxy-N,N,N-trimethyl-2-(5-methyl-7-oxo-3-phenyl-2-(trifluoromethyl)-4,7-dihydropyrazolo[1,5-a]pyrimidin-6-yl)benzo[d]oxazol-6-aminium]
< 20 | 20 to 100 | COc1cc(CO)cc2oc(-c3c(C)[nH]c4c(-c5ccccc5)c(C(F)(F)F)nn4c3=O)nc12 [Compound C1166, 6-(6-(hydroxymethyl)-4-methoxybenzo[d]oxazol-2-yl)-5-methyl-3-phenyl-2-(trifluoromethyl)pyrazolo[1,5-a]pyrimidin-7(4H)-one]
